The values below come from US11497747B2, “Compositions and methods for treating lung injuries associated with SARS-CoV-2 infections” (priority 2020, dated 2022).

For series [1], the system named is MAP3K2/MAP3K3. To be noted: p47phox substrate; cited from earlier work.
Series [2] deals with acute lung injury (ALI). To be noted: cited from earlier work.
For series [3] the following is noted: cited from earlier work.
For series [4], the system named is acute lung injury (ALI). Put plainly: mouse ALI/ARDS models (acid-induced direct insult, LPS-induced indirect insult). The following applies: dependent on MAP3K2/3 and ROS production. Type of series: in vivo.
Series [5] has as its system coronavirus (Murine Hepatitis Virus Strain 1, MHV-1) induced mouse lung injury model. Put plainly: survival and body weight loss in mouse coronavirus induced acute lung injury model. To be noted: 3 mg/kgbw retro-orbital once daily for 5 days since 24 hr after virus inoculation.
For series [6] the following is noted: in vivo; cited from earlier work.
For series [7], the system named is patients. To be noted: cited from earlier work.
Series [8] concerns MAP3K2/MAP3K3. Kind of series: MAP3K2/MAP3K3-mediated phosphorylation of p47phox. It is filed as biochemical.
Series [9] has as its system MAP3K2/MAP3K3. To be noted: MEK5 substrate; cited from earlier work.
In series [10] the test system is coronavirus (Murine Hepatitis Virus Strain 1, MHV-1) induced mouse lung injury model. Put plainly: pulmonary permeability (FITC-albumin in BAL) in mouse coronavirus induced acute lung injury model.
In series [11] the test system is neutrophils. To be noted: cited from earlier work.

Where only a bound is given, the exact number is not on record here.

For `Cc1ccc(NC(=O)c2ccc(CN3CCN(C)CC3)cc2)cc1Nc1nccc(-c2cccnc2)n1` [imatinib], the “inhibition of MAP3K2/MAP3K3-mediated phosphorylation of p47phox” value in series [1] is reported as “do not inhibit”.

`COC(=O)c1ccc2c(c1)NC(=O)/C2=C(\Nc1ccc(N(C)C(=O)CN2CCN(C)CC2)cc1)c1ccccc1` [nintedanib, Methyl (3Z)-3-{[(4-{methyl[(4-methylpiperazin-1-yl)acetyl]amino}phenyl)amino](phenyl)methylidene}-2-oxo-2,3-dihydro-1H-indole-6-carboxylate]: the “reduction of ALI in mouse models” value in [2] is given as “has been shown to reduce ALI”. In series [1], the “inhibition of MAP3K2/MAP3K3-mediated phosphorylation of p47phox” value is recorded as “also inhibits”.

As for “5-({4-[(2,3-Dimethyl-2H-indazol-6-yl)methylamino]pyrimidin-2-yl}amino)-2-methylbenzenesulfonamide [pazopanib]”, in series [3], the protein binding is greater than 99.5%. Besides, the “ameliorating ALI in the two mouse ALI/ARDS models” value in [4] is on record as “effective in ameliorating ALI”. The survival rate entry in series [5] (FIG. 6) is given as “does not affect”. Also, the body weight loss result in series [5] (FIG. 7) was “does not affect”. Also, the bioavailability in series [6] is 14-21%. Moreover, in [6], the half-life (as a rule, the time in which the quantity being followed falls by half) is 30.9 to 31.9 h. The “ILD/pneumonitis reported in patients in the clinical trials” value in series [7] (clinical trials) is 0.1 % of patients. Besides, the “patients who developed a pneumothorax” value in series [7] (randomized RCC trial) is “[t]wo of 290”. Further, the pneumothorax occurrence in [7] (randomized STS trial (8/240)) is 3%. Moreover, the “affinity as p47phox substrate-specific inhibitor for MAP3K2 and 3” value in series [8] is “low nanomolar”. Also, in series [1], the “inhibition of MAP3K2/MAP3K3-mediated phosphorylation of p47phox” value is on record as “low nM levels”. Also, in [9], the “inhibition of other substrates of MAP3K2/MAP3K3 such as MEK5” value is given as “μM levels”. For the same compound, the pulmonary permeability entry in series [10] (2 doses at 3 mg/kgbw retro-orbital, 24 and 33 h after 6000 PFU MHV-1, FIG. 2) is on record as “significantly reduce”; in [10] (3 doses at 3 mg/kgbw retro-orbital, 6, 21 and 32 h after 5000 PFU MHV-1, FIG. 1), “significantly reduce”; in [10] (one dose 3 mg/kgbw retro-orbital at 24 hr after virus inoculation, FIG. 3), “significantly reduce”; in [10] (one dose 3 mg/kgbw retro-orbital at 48 hr after virus inoculation, FIG. 4), “significantly reduce”; in [10] (one dose 3 mg/kgbw retro-orbital at 72 hr after virus inoculation, FIG. 5), “negligible effect”. Besides, the ROS levels entry in series [11] was “elevates ROS levels”.
